From US20100093748A1, “SUBSTITUTED PIPERIDINES HAVING PROTEIN KINASE INHIBITING ACTIVITY” (ASTEX THERAPEUTICS LIMITED, priority 2006, published 2010)

System: phosphorylation of Serine-9 residue in Glycogen Synthase Kinase-3beta as surrogate marker of cellular PKB (Akt) activity
Assay: In vitro MDA-MB-468 human breast adenocarcinoma GSK-3 phosphorylation assay
Type: cell-based
Conditions: MDA-MB-468 cells, 2 hours compound incubation, mean IC50, read-out: Cell pGSK3b IC50
Text: This assay determines the ability of test compounds to inhibit phosphorylation of Serine-9 residue in Glycogen Synthase Kinase-3beta (GSK-313) as a surrogate marker of cellular PKB (Akt) activity, as assessed using Acumen Explorer Fluorescent Plate-Reader technology. A MDA-MB-468 human breast adenocarcinoma cell line (LGC Promochem, Teddington, Middlesex, UK, Catalogue No. HTB-132) was routinely maintained in Dulbecco's modified Eagle's growth medium (DMEM; Invitrogen Limited, Paisley, UK Catalogue No. 11966-025) containing 10% heat-inactivated foetal calf serum (FCS; Sigma, Poole, Dorset, UK, Catalogue No. F0392) and 1% L-glutamine (Gibco, Catalogue No. 25030-024) at 37° C. with 5% CO2 up to a confluency of 70-90%.
For the phosphorylation assay, the cells were detached from the culture flask using Trypsin-EDTA (Invitrogen Limited, Catalogue No. 25300-062) and seeded into the wells of a black transparent-bottom Corning Costar Polystyrene 96 well plate (Fisher Scientific UK, Loughborough, Leicestershire, UK; Catalogue No. 3904 and DPS-130-020K) at a density of 5000 cells per well in 100 μl of complete growth media. The cells were incubated overnight at 37° C. with 5% CO2 to allow them to adhere.
On day 2, the cells were treated with test compounds and incubated for 2 hours at 37° C. with 5% CO2. Test compounds were prepared as 10mM stock solutions in DMSO and dosed directly to required concentration into test wells using non-contact (acoustic dispensing of multiple 2.5 nl droplets directly into assay wells) ECHO dosing technology (Labcyte Inc Sunnyvale, Calif., USA). Each plate contained control wells without test compound.
20 μl of fixing buffer (Phosphate Buffered Saline (PBS) containing 10% formaldehyde; Sigma; Catalogue No. F1635) was then added to each well to give a final well concentration 1.6%. Plates were then incubated for 30 minutes at room temperature prior to the fixative being removed. Each well was washed once with 250 μl of PBS and then 50 μl PBS added to each well. PBS was then aspirated and cells permeabilised and blocked by incubating each well with 50 μl of permeabilisation/blocking buffer (PBS containing 0.5% Tween 20 (Sigma; Catalogue No. P5927) and 5% Marvel Milk Powder (Andrews Pharmacy Ltd, Macclesfield, Cheshire, UK; Catalogue No. APC100199)) for 1 hour at room temperature prior to staining.
Following removal of Perm/Block buffer, 50 μl of primary anti-phospho-GSK-3β antibody (Cell Signalling Technology (New England Biolabs (Uk) Ltd.), Hitchin, Hertfordshire, UK; Catalogue No.9336 diluted 1:400 in Blocking buffer (PBS containing 5% Marvel and 0.05% Tween/Polysorbate 20) was added to each well and incubated overnight at 4° C.
Each well was washed three times in 250 μl of wash buffer (PBS containing 0.05% polysorbate 20), and cells incubated for 1 hour at room temperature with 50 μl of secondary fluorescently-labelled anti-rabbit Alexa Fluor 488 antibody (Molecular Probes, Invitrogen Limited, Catalogue No. A11008) diluted 1:750 in blocking buffer. Plates were washed three times in 250 μl of wash buffer and stored containing 50 μl of PBS at 4° C. until required.
Plates were analysed using an Acumen Explorer Plate-reader to quantify level of fluorescent signal that represents quantity of phosphorylated-GSK-313.
IC50 calculation—IC50 is the concentration of compound required to give 50% effect over the range of activity affected by the compound, between maximum (no compound) and minimum (excess level of compound) response control data. IC50 values were determined by fitting background corrected, dose response assay data to a 4 parameter logistic curve fit equation model with the minimum response set to zero. This was done using an in-house developed algorithm within the Origin graphing software package (OriginLab Corporation, Northampton, Mass., USA). […]

Structure (SMILES) | IC50
NC1(c2nc3cc(Br)ccc3[nH]2)CCN(c2ncnc3[nH]ccc23)CC1 [Example 68B, 4-(5-bromo-1H-benzo[d]imidazol-2-yl)-1-(7H-pyrrolo[2,3-d]pyrimidin-4-yl)piperidin-4-amine] | 460 nM
NC1(c2nc3cc(-c4ccco4)ccc3[nH]2)CCN(c2ncnc3[nH]ccc23)CC1 [Example 72] | 3000 nM
CS(=O)(=O)c1cccc(-c2ccc3[nH]c(C4(N)CCN(c5ncnc6[nH]ccc56)CC4)nc3c2)c1 [Example 75, 4-[5-(3-methylsulfonylphenyl)-1H-benzimidazol-2-yl]-1-(7H-pyrrolo[2,3-d]pyrimidin-4-yl)piperidin-4-amine] | 5100 nM
COc1cccc(-c2ccc3[nH]c(C4(N)CCN(c5ncnc6[nH]ccc56)CC4)nc3c2)c1 [Example 76, 4-[5-(3-methoxyphenyl)-1H-benzimidazol-2-yl]-1-(7H-pyrrolo[2,3-d]pyrimidin-4-yl)piperidin-4-amine] | 6400 nM
NC1(c2nc3c(-c4cccnc4)cccc3[nH]2)CCN(c2ncnc3[nH]ccc23)CC1 [Example 79] | 85 nM
COc1cccc(-c2cccc3[nH]c(C4(N)CCN(c5ncnc6[nH]ccc56)CC4)nc23)c1 [Example 81, -[4-(3-methoxyphenyl)-1H-benzimidazol-2-yl]-1-(7H-pyrrolo[2,3-d]pyrimidin-4-yl)piperidin-4-amine] | 140 nM
COc1ccc(-c2cccc3[nH]c(C4(N)CCN(c5ncnc6[nH]ccc56)CC4)nc23)cc1 [Example 82, -[4-(4-methoxyphenyl)-1H-benzimidazol-2-yl]-1-(7H-pyrrolo[2,3-d]pyrimidin-4-yl)piperidin-4-amine] | 120 nM
CS(=O)(=O)c1ccc(-c2cccc3[nH]c(C4(N)CCN(c5ncnc6[nH]ccc56)CC4)nc23)cc1 [Example 83, 4-{4-[4-(methylsulfonyl)phenyl]-1H-benzimidazol-2-yl}-1-(7H-pyrrolo[2,3-d]pyrimidin-4-yl)piperidin-4-amine] | 47 nM
NC1(c2nc3c(Br)cccc3[nH]2)CCN(c2ncnc3[nH]ccc23)CC1 [Example 85, 4-(7-Bromo-1H-benzo[d]imidazol-2-yl)-1-(7H-pyrrolo[2,3-d]pyrimidin-4-yl)piperidin-4-amine] | 350 nM
Cn1cc(-c2cccc3[nH]c(C4(N)CCN(c5ncnc6[nH]ccc56)CC4)nc23)cn1 [Example 86, 4-(4-(1-Methyl-1H-pyrazol-4-yl)-1H-benzo[d]imidazol-2-yl)-1-(7H-pyrrolo[2,3-d]pyrimidin-4-yl)piperidin-4-amine] | 130 nM
NC1(c2nc3c(-c4ccco4)cccc3[nH]2)CCN(c2ncnc3[nH]ccc23)CC1 [Example 87, 4-[7-(2-furyl)-1H-benzimidazol-2-yl]-1-(7H-pyrrolo[2,3-d]pyrimidin-4-yl)piperidin-4-amine] | 220 nM
NC1(c2nc3c(-c4ccoc4)cccc3[nH]2)CCN(c2ncnc3[nH]ccc23)CC1 [Example 88, 4-[7-(3-furyl)-1H-benzimidazol-2-yl]-1-(7H-pyrrolo[2,3-d]pyrimidin-4-yl)piperidin-4-amine] | 52 nM
NCC1(c2nc3cc(Br)ccc3[nH]2)CCN(c2ncnc3[nH]ccc23)CC1 [Example 89E, (4-(5-Bromo-1H-benzo[d]imidazol-2-yl)-1-(7H-pyrrolo[2,3-d]pyrimidin-4-yl)piperidin-4-yl)methanamine] | 81 nM
NC1(c2nc3c(-c4cncnc4)cccc3[nH]2)CCN(c2ncnc3[nH]ccc23)CC1 [Example 91, 4-(4-pyrimidin-5-yl-1H-benzimidazol-2-yl)-1-(7H-pyrrolo[3,2-e]pyrimidin-4-yl)piperidin-4-amine] | 52 nM
NC1(c2nc3c(-c4ccncc4)cccc3[nH]2)CCN(c2ncnc3[nH]ccc23)CC1 [Example 92, 4-(4-pyridin-4-yl-1H-benzimidazol-2-yl)-1-(7H-pyrrolo[3,2-e]pyrimidin-4-yl)piperidin-4-amine] | 33 nM
NC1(c2nc3c(-c4cn[nH]c4)cccc3[nH]2)CCN(c2ncnc3[nH]ccc23)CC1 [Example 93, 4-[4-(1H-pyrazol-4-yl)-1H-benzimidazol-2-yl]-1-(7H-pyrrolo[3,2-e]pyrimidin-4-yl)piperidin-4-amine] | 250 nM

Continued by falling IC50, values first:

IC50 | Structure (SMILES)
16000 nM | CS(=O)(=O)c1ccc(-c2ccc3[nH]c(C4(N)CCN(c5ncnc6[nH]ccc56)CC4)nc3c2)cc1 [Example 78, 4-[5-(4-methylsulfonylphenyl)-1H-benzimidazol-2-yl]-1-(7H-pyrrolo[2,3-d]pyrimidin-4-yl)piperidin-4-amine]
12000 nM | NC1(c2nc3cc(-c4cccnc4)ccc3[nH]2)CCN(c2ncnc3[nH]ccc23)CC1 [Example 77, 4-(5-pyridin-3-yl-1H-benzimidazol-2-yl)-1-(7H-pyrrolo[2,3-d]pyrimidin-4-yl)piperidin-4-amine]
3700 nM | Cn1cc(-c2ccc3[nH]c(C4(N)CCN(c5ncnc6[nH]ccc56)CC4)nc3c2)cn1 [Example 74, 4-[5-(1-methylpyrazol-4-yl)-1H-benzimidazol-2-yl]-1-(7H-pyrrolo[2,3-d]pyrimidin-4-yl)piperidin-4-amine]
3300 nM | COc1ccc(-c2ccc3[nH]c(C4(N)CCN(c5ncnc6[nH]ccc56)CC4)nc3c2)cc1 [Example 73, 4-[5-(4-methoxyphenyl)-1H-benzimidazol-2-yl]-1-(7H-pyrrolo[2,3-d]pyrimidin-4-yl)piperidin-4-amine]
2500 nM | COc1ccccc1-c1ccc2[nH]c(C3(N)CCN(c4ncnc5[nH]ccc45)CC3)nc2c1 [Example 71, 4-[5-(2-methoxyphenyl)-1H-benzimidazol-2-yl]-1-(7H-pyrrolo[2,3-d]pyrimidin-4-yl)piperidin-4-amine]
2400 nM | NC1(c2nc3cc(-c4ccccc4)ccc3[nH]2)CCN(c2ncnc3[nH]ccc23)CC1 [Example 68D, 4-(5-phenyl-1H-benzo[d]imidazol-2-yl)-1-(7H-pyrrolo[2,3-d]pyrimidin-4-yl)piperidin-4-amine]
1600 nM | NC1(c2nc3cc(-c4ccoc4)ccc3[nH]2)CCN(c2ncnc3[nH]ccc23)CC1 [Example 69, 4-(5-furan-3-yl-1H-benzimidazol-2-yl)-1-(7H-pyrrolo[2,3-d]pyrimidin-4-yl)piperidin-4-amine]
1600 nM | NC1(c2nc3cc(-c4ccncc4)ccc3[nH]2)CCN(c2ncnc3[nH]ccc23)CC1 [Example 70, 4-(5-pyridin-4-yl-1H-benzimidazol-2-yl)-1-(7H-pyrrolo[2,3-d]pyrimidin-4-yl)piperidin-4-amine]
64 nM | COc1ccccc1-c1cccc2[nH]c(C3(N)CCN(c4ncnc5[nH]ccc45)CC3)nc12 [Example 80, 4-[4-(2-methoxyphenyl)-1H-benzimidazol-2-yl]-1-(7H-pyrrolo[2,3-d]pyrimidin-4-yl)piperidin-4-amine]
62 nM | NCC1(c2nc3cc(Cl)ccc3[nH]2)CCN(c2ncnc3[nH]ccc23)CC1 [Example 67B, (4-(5-chloro-1H-benzo[d]imidazol-2-yl)-1-(7H-pyrrolo[2,3-d]pyrimidin-4-yl)piperidin-4-yl)methanamine]
49 nM | CS(=O)(=O)c1cccc(-c2cccc3[nH]c(C4(N)CCN(c5ncnc6[nH]ccc56)CC4)nc23)c1 [Example 95, 4-[4-(3-methylsulfonylphenyl)-1H-benzimidazol-2-yl]-1-(7H-pyrrolo[3,2-e]pyrimidin-4-yl)piperidin-4-amine]
47 nM | NC1(c2nc3c(-c4cccc(S(N)(=O)=O)c4)cccc3[nH]2)CCN(c2ncnc3[nH]ccc23)CC1 [Example 94, 3-[2-[4-amino-1-(7H-pyrrolo[3,2-e]pyrimidin-4-yl)piperidin-4-yl]-1H-benzimidazol-4-yl]benzenesulfonamide]
